From paper PMC10999543, “Identification of kinase modulators as host-directed therapeutics against intracellular methicillin-resistant Staphylococcus aureus” (Frontiers in Cellular and Infection Microbiology, 2024) come the findings set out here.

Where two headings read alike, the source gives them in different places.

One data set deals with HeLa cells. Kind of data set: Compound screen by flow cytometry: HeLa cell count as surrogate readout of cell viability (z-scoreHeLa). The format is cell-based, human. Particulars: for z-scoreHeLa mean: mean of 3 replicates; for z-scoreHeLa rep 1 / cell count rep 1: replicate 1; for z-scoreHeLa rep 2 / cell count rep 2: replicate 2; for z-scoreHeLa rep 3 / cell count rep 3: replicate 3. The procedure:
(§1) The cells were resuspended in cell culture medium without antibiotics, seeded with 10,000 cells/well into Costar flat-bottom 96-well plates (Corning, Amsterdam, the Netherlands), and were incubated overnight at 37°C/5% CO2. The next day, the bacteria were centrifuged at ≥1800 g for 15 min and resuspended in cold PBS + 5 mM ethylenediaminetetraacetic acid (EDTA). The number of CFUs present in the bacterial suspension was estimated from the optical density at 600 nm (OD600) by assuming 8x10^8 CFUs to be present in a bacterial suspension with OD600 = 1, based on prior titrations. The bacterial suspension was diluted in cell culture medium without antibiotics and added to the cells. Accuracy of the multiplicity of infection (MOI) was validated by plating serial dilutions of the MRSA inoculums on Difco TS agar plates (BD Biosciences). The calculated mean MOI throughout all experiments was 6.8 ± 4.6 (mean ± SD). Infected cells were centrifuged for 3 min at 150 g and incubated for 1 hour at 37°C/5% CO2. Next, the cells were incubated with fresh cell culture medium supplemented with 30 µg/ml gentamicin sulphate (Lonza BioWhittaker, Basel, Switzerland) for 15 min at 37°C/5% CO2 to kill residual extracellular bacteria. Infected cells were incubated overnight at 37°C/5% CO2 in cell culture medium in the presence of kinase inhibitors and 5 µg/ml gentamicin sulphate-containing medium to prevent the growth of extracellular bacteria. The solvent of the compounds, DMSO, was used at equal % v/v as a negative control. For the screen, each compound was tested in triplicate, on separate cell culture plates, resulting in triplicate values for each kinase inhibitor.
(§2) HeLa cells were harvested by trypsinization and fixed with 1% paraformaldehyde. Samples were measured on a FACSLyric with HTS extension (BD Biosciences). Flow cytometry data were analysed using FlowJo version 10 (TreeStar, Ashland, OR, USA). HeLa cells positive for GFP were gated to calculate the percentage of MRSA-infected cells. The cell count was used as surrogate readout of cell viability.
To minimize the possibility that the presence of extreme values on a plate affected the z-scores, raw values that deviated two-fold from the negative controls were excluded when calculating plate means and standard deviations as used in the aforementioned formula. Compounds were considered a “hit” when z-scoreMRSA+ ≤ -2 and z-scoreHeLa ≥ -3 for cell count. In cases where compounds were screened twice, the average values were used to select hit compounds.
On the technique in general: Flow cytometry measures light scatter and fluorescence of single cells or particles in a stream.

The next data set relates to intracellular MRSA. It is filed as cell-based, Staphylococcus aureus. The following applies: for z-scoreMRSA+ mean: mean of 3 replicates; for z-scoreMRSA+ rep 1 / %GFP+ rep 1: replicate 1; for z-scoreMRSA+ rep 2 / %GFP+ rep 2: replicate 2; for z-scoreMRSA+ rep 3 / %GFP+ rep 3: replicate 3. As for the experimental part: as §1, §2
To identify potential “hit” compounds, the flow cytometry data were used to calculate standard z-scores using z = (x-μ)/σ – zneg, where x is total event count or the percent of GFP-positive cells from a single well, μ is the mean from wells of the plate, σ is the standard deviation of the plate and zneg is the mean z-score of the negative control of the plate (i.e., DMSO) ([Korbee et al., 2018]). To minimize the possibility that the presence of extreme values on a plate affected the z-scores, raw values that deviated two-fold from the negative controls were excluded when calculating plate means and standard deviations as used in the aforementioned formula. Compounds were considered a “hit” when z-scoreMRSA+ ≤ -2 and z-scoreHeLa ≥ -3 for cell count. In cases where compounds were screened twice, the average values were used to select hit compounds.

Setting [1] is: PKIS compound screen, Yes/No call.
Setting [2] is: PKIS compounds raw data, HeLa cell count.
The mark [3] stands for this setting: PKIS compound screen, Yes/No call (effect without cell death).
Setting [4] is: PKIS compounds raw data, MRSA-infected HeLa cells.
[5] abbreviates: PKIS compound screen raw data, HeLa cell count.
Where [6] appears, read: PKIS compound screen, HeLa cell count.
Where [7] appears, read: PKIS compound screen, Yes/No call on z-scoreHeLa.
Setting [8] is: PKIS compound screen raw data, MRSA-infected HeLa cells.
Setting [9] is: PKIS compound screen, MRSA-infected HeLa cells.
Where [10] appears, read: PKIS compound screen, Yes/No call on z-scoreMRSA+.
The mark [11] stands for this setting: compound screen, HeLa cell count.
Setting [12] is: compound screen, MRSA-infected HeLa cells.

For the compound `Cc1n[nH]c2ccc(-c3cc(OC[C@@H](N)Cc4ccccc4)cnc3-c3ccoc3)cc12` [GSK507358A], the cell death entry with HeLa cells (setting [1]) is listed as “No”. In the data set on HeLa cells (PKIS compound screen), the z-scoreHeLa mean was found to be 1.21, the “z-scoreHeLa rep 1” value was 1.04, the “z-scoreHeLa rep 2” value was 1.55 and the “z-scoreHeLa rep 3” value came to 1.04. Moreover, in the data set with HeLa cells (setting [2]), the “cell count rep 1” value is on record as 7770, the “cell count rep 2” value was found to be 8336 and the “cell count rep 3” value came out at 7240. Further, the effect result in the data set on intracellular MRSA (setting [1]) is “No”. Besides, the hit entry in the data set with intracellular MRSA (setting [3]) is reported as “No”. For the same compound, in the data set on intracellular MRSA (PKIS compound screen), the “z-scoreMRSA+ mean” value is on record as -1.58, the “z-scoreMRSA+ rep 1” value is reported as -1.88, the “z-scoreMRSA+ rep 2” value is reported as -1.31 and the “z-scoreMRSA+ rep 3” value was -1.55. Besides, in the data set with intracellular MRSA (setting [4]), the “%GFP+ rep 1” value was 17.4%, the “%GFP+ rep 2” value was 19.2% and the “%GFP+ rep 3” value was 18.9%.

With `Cc1ccc(S(=O)(=O)Nc2ccc(Nc3nccc(Nc4cccc5[nH]ncc45)n3)cc2)cc1` [GSK581271A], in the data set with HeLa cells (setting [1]), the cell death entry was “No”. For the same compound, in the data set on HeLa cells (PKIS compound screen), the z-scoreHeLa mean was 0.40, the “z-scoreHeLa rep 1” value is 0.33, the “z-scoreHeLa rep 2” value stood at 0.35 and the “z-scoreHeLa rep 3” value was found to be 0.51. Moreover, in the data set with HeLa cells (setting [2]), the “cell count rep 1” value is reported as 6603, the “cell count rep 2” value is listed as 6528 and the “cell count rep 3” value worked out at 6401. For the same compound, the effect result in the data set on intracellular MRSA (setting [1]) is listed as “No”. In addition, the hit entry with intracellular MRSA (setting [3]) is reported as “No”. Further, in the data set on intracellular MRSA (PKIS compound screen), the “z-scoreMRSA+ mean” value is reported as -0.30, the “z-scoreMRSA+ rep 1” value is reported as -0.62, the “z-scoreMRSA+ rep 2” value is 0.0118 and the “z-scoreMRSA+ rep 3” value is -0.29. In the data set with intracellular MRSA (setting [4]), the “%GFP+ rep 1” value is 23.9%, the “%GFP+ rep 2” value is 26.1% and the “%GFP+ rep 3” value came to 25.7%.

For `CS(=O)(=O)Nc1ccc(-c2cc(-c3ccccc3)cc(C(N)=O)c2N)cc1` [GSK586581A], in the data set with HeLa cells (setting [5]), the “cell count rep 1” value turned out to be 20516, the “cell count rep 2” value was 41456 and the “cell count rep 3” value was 41123. In the data set on HeLa cells (setting [6]), the z-scoreHeLa mean was determined as 0.47, the “z-scoreHeLa rep 1” value is listed as 0.06, the “z-scoreHeLa rep 2” value amounted to 1.24 and the “z-scoreHeLa rep 3” value worked out at 0.09. In addition, the cell death result in the data set on HeLa cells (setting [7]) is recorded as “No”. Further, in the data set on intracellular MRSA (setting [8]), the “%GFP+ rep 1” value was found to be 17.7%, the “%GFP+ rep 2” value is listed as 16.5% and the “%GFP+ rep 3” value is listed as 20.3%. In the data set on intracellular MRSA (setting [9]), the “z-scoreMRSA+ mean” value is -0.17, the “z-scoreMRSA+ rep 1” value is listed as -0.05, the “z-scoreMRSA+ rep 2” value is reported as -0.61 and the “z-scoreMRSA+ rep 3” value is 0.16. Moreover, the hit entry with intracellular MRSA (setting [3]) is “No”. Also, the effect result with intracellular MRSA (setting [10]) is reported as “No”.

On to `CNC(=O)c1cc(-c2ccc(F)cc2)cc(-c2ccc(S(=O)(=O)N3CCCC3)cc2)c1N` [GSK635416A], for which the cell death result in the data set on HeLa cells (setting [1]) is listed as “No”. Further, in the data set on HeLa cells (PKIS compound screen), the z-scoreHeLa mean is -0.10, the “z-scoreHeLa rep 1” value is reported as -0.27, the “z-scoreHeLa rep 2” value is given as 0.000722 and the “z-scoreHeLa rep 3” value is on record as -0.04. In the data set with HeLa cells (setting [2]), the “cell count rep 1” value is recorded as 4473, the “cell count rep 2” value was 4269 and the “cell count rep 3” value is 6877. Moreover, in the data set with intracellular MRSA (setting [1]), the effect entry is recorded as “No”. The hit result in the data set on intracellular MRSA (setting [3]) is “No”. Also, in the data set on intracellular MRSA (PKIS compound screen), the “z-scoreMRSA+ mean” value is listed as -0.63, the “z-scoreMRSA+ rep 1” value is reported as -0.38, the “z-scoreMRSA+ rep 2” value is on record as -0.50 and the “z-scoreMRSA+ rep 3” value is -1.00. In addition, in the data set with intracellular MRSA (setting [4]), the “%GFP+ rep 1” value is listed as 12.0%, the “%GFP+ rep 2” value was 12.0% and the “%GFP+ rep 3” value was 12.5%.

Regarding `Nc1ncc(-c2cccnc2)c2scc(-c3ccc4c(c3)CCN4C(=O)Cc3ccccc3)c12` [GSK683281A], in the data set with HeLa cells (setting [5]), the “cell count rep 1” value stood at 22126, the “cell count rep 2” value was determined as 22399 and the “cell count rep 3” value is 35639. Moreover, in the data set with HeLa cells (setting [6]), the z-scoreHeLa mean is reported as -0.93, the “z-scoreHeLa rep 1” value was found to be 0.30, the “z-scoreHeLa rep 2” value is on record as -2.31 and the “z-scoreHeLa rep 3” value is listed as -0.78. Besides, the cell death entry in the data set with HeLa cells (setting [1]) was “No”. The cell death result with HeLa cells (setting [7]) was “No”. Besides, in the data set on HeLa cells (PKIS compound screen), the z-scoreHeLa mean turned out to be 0.13, the “z-scoreHeLa rep 1” value is given as 0.36, the “z-scoreHeLa rep 2” value stood at 0.0122 and the “z-scoreHeLa rep 3” value was 0.0253. In the data set on HeLa cells (setting [2]), the “cell count rep 1” value came out at 6640, the “cell count rep 2” value turned out to be 6026 and the “cell count rep 3” value worked out at 5637. Also, in the data set with intracellular MRSA (setting [8]), the “%GFP+ rep 1” value was found to be 18.3%, the “%GFP+ rep 2” value was 19.8% and the “%GFP+ rep 3” value came to 19.8%. Further, in the data set on intracellular MRSA (setting [9]), the “z-scoreMRSA+ mean” value is on record as 0.18, the “z-scoreMRSA+ rep 1” value is given as 0.14, the “z-scoreMRSA+ rep 2” value came out at 0.38 and the “z-scoreMRSA+ rep 3” value amounted to 0.00377. Also, in the data set on intracellular MRSA (setting [1]), the effect entry is listed as “No”. Besides, in the data set with intracellular MRSA (setting [3]), the hit result was “No”. In addition, the effect entry with intracellular MRSA (setting [10]) is given as “No”. In the data set with intracellular MRSA (PKIS compound screen), the “z-scoreMRSA+ mean” value is 0.38, the “z-scoreMRSA+ rep 1” value is 0.20, the “z-scoreMRSA+ rep 2” value is 0.70 and the “z-scoreMRSA+ rep 3” value amounted to 0.25. In the data set on intracellular MRSA (setting [4]), the “%GFP+ rep 1” value turned out to be 28.1%, the “%GFP+ rep 2” value is 29.7% and the “%GFP+ rep 3” value turned out to be 28.6%.

As for `CCn1cc(-c2ccnc3[nH]ccc23)c(-c2cccc(NC(=O)Nc3ccc(OCc4ccccc4)cc3)c2)n1` [GSK718429A], in the data set on HeLa cells (setting [2]), the “cell count rep 1” value was determined as 2721, the “cell count rep 2” value was 2140 and the “cell count rep 3” value is given as 4945. Moreover, the cell death result in the data set on HeLa cells (Yes/No call from z-scoreHeLa) is given as “No”. Also, in the data set on HeLa cells (setting [11]), the z-scoreHeLa mean was -1.48, the “z-scoreHeLa rep 1” value is on record as -1.86, the “z-scoreHeLa rep 2” value is reported as -1.61 and the “z-scoreHeLa rep 3” value was -0.96. In the data set on intracellular MRSA (setting [4]), the “%GFP+ rep 1” value stood at 12.6%, the “%GFP+ rep 2” value is 13.0% and the “%GFP+ rep 3” value came out at 13.2%. Further, in the data set on intracellular MRSA (Yes/No call from z-scoreMRSA+), the effect result is on record as “No”. The hit entry with intracellular MRSA (Yes/No: effect without cell death) is given as “No”. In the data set with intracellular MRSA (setting [12]), the “z-scoreMRSA+ mean” value is given as -0.38, the “z-scoreMRSA+ rep 1” value is -0.18, the “z-scoreMRSA+ rep 2” value was -0.17 and the “z-scoreMRSA+ rep 3” value is -0.79.
